What was measured:
SH-SY5Y [1] = assay: Neuroprotective activity against H2O2-induced neurotoxicity in human SH-SY5Y cells assessed as cell survival at 10 uM incubated for 2 hrs before H2O2 challenge measured after 24 hrs by MTT assay; format: functional; settings: for viability at 10 µM: Homo sapiens, SH-SY5Y, read-out: Activity
SH-SY5Y [2] = assay: Neuroprotective activity against H2O2-induced neurotoxicity in human SH-SY5Y cells assessed as cell survival at 1 uM incubated for 2 hrs before H2O2 challenge measured after 24 hrs by MTT assay; format: functional; settings: for viability at 1 µM: Homo sapiens, SH-SY5Y, read-out: Activity

| Compound | viability at 10 µM (SH-SY5Y [1]) | viability at 1 µM (SH-SY5Y [2]) | Activity (SH-SY5Y [1]) | Activity (SH-SY5Y [2]) |
| --- | --- | --- | --- | --- |
| COc1cc2c(c(OC)c1OC)-c1c(cc3c(c1OC)OCO3)[C@H](OC(C)=O)[C@H](C)[C@H](C)C2 (stereo in doubt; 1) [KADSURIN] | 51.7% | 58.9% |  |  |
| COc1cc2c(c(OC)c1OC)-c1c(cc3c(c1OC)OCO3)[C@H](OC(C)=O)[C@H](C)[C@H](C)C2 (stereo in doubt; 16) [KADSURIN] |  |  | 49.7% | 56.3% |
| COc1cc2c(c(OC)c1OC)-c1c(cc3c(c1OC)OCO3)[C@@H](OC(C)=O)[C@@H](C)[C@H](C)C2=O [ANANOLIGNAN B] | 69.6% | 59.7% |  |  |
| COc1cc2c(c(OC)c1OC)-c1c(cc3c(c1OC)OCO3)[C@H](O)[C@H](C)[C@H](C)[C@@H]2O [ANANOLIGNAN C] | 59.6% | 57.7% |  |  |
| COc1cc2c(c(OC)c1OC)-c1c(cc3c(c1OC)OCO3)[C@H](OC(C)=O)[C@H](C)[C@H](C)[C@@H]2O [ANANOLIGNAN D] | 63% | 64.3% |  |  |
| COc1cc2c(c(OC)c1OC)-c1c(cc3c(c1OC)OCO3)[C@H](O)[C@H](C)[C@H](C)[C@H]2OC(C)=O [ANANOLIGNAN E] | 56.3% | 62% |  |  |
| COc1cc2c(c(OC)c1OC)-c1c(cc3c(c1OC)OCO3)[C@H](OC(C)=O)[C@H](C)[C@H](C)[C@H]2OC(C)=O [ANANOLIGNAN F] | 88.6% | 90% |  |  |
| CCC(=O)O[C@H]1c2cc3c(c(OC)c2-c2c(cc(OC)c(OC)c2OC)[C@H](OC(C)=O)[C@@H](C)[C@H]1C)OCO3 [ANANOLIGNAN G] | 56.7% | 57.7% |  |  |
| COc1cc2c(c(OC)c1OC)-c1c(cc3c(c1OC)OCO3)[C@H](OC(=O)C(C)C)[C@H](C)[C@H](C)[C@H]2OC(C)=O [ANANOLIGNAN H] | 63.9% | 64.1% |  |  |
| CCCC(=O)O[C@H]1c2cc3c(c(OC)c2-c2c(cc(OC)c(OC)c2OC)[C@H](OC(C)=O)[C@@H](C)[C@H]1C)OCO3 [ANANOLIGNAN I] | 60.1% | 61.1% |  |  |
| CCC(C)C(=O)O[C@H]1c2cc3c(c(OC)c2-c2c(cc(OC)c(OC)c2OC)[C@H](OC(C)=O)[C@@H](C)[C@H]1C)OCO3 (stereo partly drawn) [ANANOLIGNAN J] | 55.1% | 52.2% |  |  |
| COc1cc2c(c(OC)c1OC)-c1c(cc3c(c1OC)OCO3)[C@H](OC(=O)c1ccccc1)[C@H](C)[C@H](C)[C@H]2OC(C)=O [ANANOLIGNAN K] | 71.4% | 68.9% |  |  |
| C/C=C(\C)C(=O)O[C@H]1c2cc(OC)c(OC)c(OC)c2-c2c(cc3c(c2OC)OCO3)[C@H](OC(C)=O)[C@H](C)[C@@H]1C [ANANOLIGNAN L] | 66.9% | 79.2% |  |  |
| C/C=C(/C)C(=O)O[C@H]1c2cc(OC)c(OC)c(OC)c2-c2c(cc3c(c2OC)OCO3)[C@H](OC(=O)C(C)C)[C@H](C)[C@@H]1C [ANANOLIGNAN M] | 64.5% | 74% |  |  |
| C/C=C(/C)C(=O)O[C@H]1c2cc(OC)c(OC)c(OC)c2-c2c(cc3c(c2OC)OCO3)[C@H](OC(=O)CCC)[C@H](C)[C@@H]1C [ANANOLIGNAN N] | 66.8% | 75% |  |  |
| C/C=C(\C)C(=O)O[C@H]1c2cc(OC)c(OC)c(OC)c2-c2c(cc3c(c2OC)OCO3)[C@H](O)[C@H](C)[C@@H]1C [ANANOSIN A] | 68.2% | 66.4% |  |  |
| C/C=C(/C)C(=O)O[C@H]1c2cc(OC)c(OC)c(OC)c2-c2c(cc3c(c2OC)OCO3)[C@H](OC(C)=O)[C@H](C)[C@@H]1C [INTERIOTHERIN C] | 53.6% | 45.7% |  |  |
| COc1cc2c(c(OC)c1OC)-c1c(cc3c(c1OC)OCO3)[C@H](O)[C@H](C)[C@H](C)C2 [ISOGOMISIN O] | 56.7% | 56.9% |  |  |
| COc1cc2c(c(OC)c1OC)-c1c(cc3c(c1OC)OCO3)[C@H](O)[C@@H](C)[C@@H](C)C2 [YUNNANKADSURIN B] | 60.1% | 41.7% |  |  |

From ChEMBL document CHEMBL1781894, “Dibenzocyclooctadiene lignans with antineurodegenerative potential from Kadsura ananosma” (2011)
